Assay results reported in US20080064681A1, “Therapeutic agent for treating glaucoma” (priority 2006, published 2008).
Where a name gives a salt, the structure may show the parent alone.

What was measured:
[1] = test system: intraocular pressure in rabbits; experiment: Intraocular pressure measurement after instillation of eye drops in rabbits; format: in vivo, rabbit (NZW, male); conditions: for time after instillation of maximum intraocular-pressure-reducing effect: 1% eye drops in phosphate buffer pH 7.0, 0.05 ml into right eye; for time after instillation of maximum intraocular-pressure-reducing effect / period of intraocular-pressure-reducing effect longer than that for the compound M / inhibition in vivo at 1 % / intraocular-pressure-reducing effect relative to that of the compound M: rabbit; for period of intraocular-pressure-reducing effect longer than that for the compound M / inhibition in vivo at 1 %: 1% eye drops; for inhibition in vivo at 1 %: Oryctolagus cuniculus, topical, 2 h, 120 minutes after instillation, read-out: maximum intraocular-pressure-reducing effect, intraocular pressure lower than that of the control eye; for intraocular-pressure-reducing effect relative to that of the compound M: after 120 minutes from the instillation
Experimental: Eye drops were prepared by dissolving each compound (1.0 g) in a phosphate buffer solution which was prepared by dissolving 0.8 g of sodium dihydrogen phosphate and 0.5 g of sodium chloride in purified water such that the final weight was 100 g. The pH was adjusted to 7.0 with sodium hydroxide.
As a control, a phosphate buffer solution (pH 7.0) in which 1.0 g of the compound M was not dissolved was used.
Each rabbit (NZW, male, 2.5 to 3.0 kg) was secured in a holder. One of the preparations (0.05 ml) was instilled into the right eye, and the phosphate buffer as control (0.05 ml) was instilled into the left eye. The intraocular pressures were measured serially using a TonoLab handheld mobile tonometer manufactured by Tiolat. The ratios to the control values were calculated and plotted with time (refer to figures).
Eye drops were prepared by dissolving the compound (S)-hexahydro-1-(4-fluoroisoquinoline-5-sulfonyl)-4-glycyl-2-methyl-1H-1,4-diazepine dihydrochloride (1.0 g) in 1.0 g of dimethyl sulfoxide and adding the resulting solution to a boric acid solution prepared by dissolving 2.0 g of boric acid in purified water such that the final weight was 100 g. The pH was adjusted to 7.0 with sodium hydroxide.
The eye drops were administered to a rabbit as in Example 1, and the intraocular pressures were measured.

[2] = target: T1, recombinant ROCK II (1-602) (Homo sapiens, UniProt O75116); experiment: Rho-kinase assay (phosphate incorporation, [γ-32P]ATP, RSK peptide); format: biochemical; conditions: 10 nM ROCK II, 10 μM ATP, 30° C., 10 minutes
T1 construct: made in house; host or cells: Sf9 insect cells
T1 sequence (O75116 1-602): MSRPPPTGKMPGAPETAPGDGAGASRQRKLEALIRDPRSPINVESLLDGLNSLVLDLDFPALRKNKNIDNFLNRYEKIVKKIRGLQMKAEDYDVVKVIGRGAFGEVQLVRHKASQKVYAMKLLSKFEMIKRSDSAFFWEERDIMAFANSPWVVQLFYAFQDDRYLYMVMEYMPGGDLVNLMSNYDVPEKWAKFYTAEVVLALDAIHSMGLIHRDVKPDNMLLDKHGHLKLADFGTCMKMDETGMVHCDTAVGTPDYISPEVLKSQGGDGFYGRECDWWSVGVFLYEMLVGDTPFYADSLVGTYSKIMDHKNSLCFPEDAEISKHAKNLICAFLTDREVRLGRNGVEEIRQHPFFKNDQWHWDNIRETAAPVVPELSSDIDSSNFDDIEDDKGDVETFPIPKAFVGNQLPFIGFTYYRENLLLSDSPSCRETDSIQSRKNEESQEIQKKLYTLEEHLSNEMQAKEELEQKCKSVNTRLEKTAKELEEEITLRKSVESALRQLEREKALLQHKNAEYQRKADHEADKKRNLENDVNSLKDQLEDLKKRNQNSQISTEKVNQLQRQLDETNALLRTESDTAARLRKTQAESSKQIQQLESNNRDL
Experimental: Rho-kinase assays were performed using the compounds in various concentrations and the 50% inhibitory concentrations (hereinafter referred to as the “IC50 value”) of the compounds for Rho-kinase were calculated. In the Rho-kinase assay, phosphorylation reaction was performed using an activated form of recombinant ROCK II (1-602) obtained by expressing human ROCK II cDNA in Sf9 cells […], and the phosphate incorporation activity was defined as the Rho-kinase activity. Namely, the compounds were each added to a reaction solution containing 50 mM Tris-HCL (ph 7.4), […], 2 mM EDTA, 2 mM EGTA, 0.1% tween 20, 50 μM RSK peptide, 10 μM [γ-^32P]ATP, and 10 nM ROCK II, and the reaction was allowed to proceed at 30° C. for 10 minutes. The reaction mixture was spotted on phosphocellulose paper, and the reaction was stopped by dipping the phosphocellulose paper into a phosphoric acid solution. The phosphocellulose paper was washed with the phosphoric acid solution, and then radioactivity was measured with a liquid scintillation counter.
An Rho-kinase assay was performed, and the 50% inhibitory concentration (hereinafter referred to as the “IC50 value”) was calculated. The IC50 value of the reference compound (S)-hexahydro-1-(4-fluoroisoquinoline-5-sulfonyl)-4-glycyl-2-methyl-1H-1,4-diazepine dihydrochloride for Rho-kinase is shown in Table 2.

[3] = test system: intraocular pressure in rabbits; conditions: literature reports; cited from earlier work

Row | SMILES | IC50 [2] [nM] | time after instillation of maximum intraocular-pressure-reducing effect [1] [min] | period of intraocular-pressure-reducing effect longer than that for the compound M [1] | inhibition in vivo at 1 % [1] [%] | intraocular-pressure-reducing effect relative to that of the compound M [1] | effect on intraocular pressure in rabbits (reported) [3] | intraocular-pressure-reducing effect ([1]; 1% eye drops in dimethyl sulfoxide / boric acid solution pH 7.0, rabbit)
1 | C[C@H]1CNCCN1S(=O)(=O)c1cccc2cncc(Br)c12 [Compound B6, 2-(S)-1-(4-bromoisoquinoline-5-sulfonyl)-2-methylpiperazine dihydrochloride] | 634 | 120 | about 2 hours | 26 | substantially the same as that of the compound M |  | 
2 | C[C@H]1CNCCCN1S(=O)(=O)c1cccc2cncc(Br)c12 [Compound B7, (S)-hexahydro-1-(4-bromoisoquinoline-5-sulfonyl)-2-methyl-1H-1,4-diazepine dihydrochloride] | 28.4 | 120 | about 5 hours | 56 | 2.0 times |  | 
3 | C[C@H]1CNCCCN1S(=O)(=O)c1cccc2cncc(Cl)c12 [Compound C7, (S)-hexahydro-1-(4-chloroisoquinoline-5-sulfonyl)-2-methyl-1H-1,4-diazepine dihydrochloride] | 25.8 | 120 | about 3 hours | 54 | 1.9 times |  | 
4 | C[C@H]1CNCCCN1S(=O)(=O)c1cccc2cncc(F)c12 [Compound F7, (S)-hexahydro-1-(4-fluoroisoquinoline-5-sulfonyl)-2-methyl-1H-1,4-diazepine dihydrochloride] | 85 | 120 | about 3 hours | 45 | 1.9 times |  | 
5 | C[C@H]1CNCCCCN1S(=O)(=O)c1cccc2cncc(F)c12 [Compound F8, (S)-octahydro-1-(4-fluoroisoquinoline-5-sulfonyl)-2-methyl-1,4-diazocine dihydrochloride] | 39.1 | 120 | about 1 hours | 45 | 1.6 times |  | 
6 | C[C@@H](N)[C@H]1CC[C@H](C(=O)Nc2ccncc2)CC1 [Compound Y-27632] |  |  |  |  |  | reduce intraocular pressure in rabbits | 
7 | O=S(=O)(c1cccc2cnccc12)N1CCCNCC1 [HA-1077] |  |  |  |  |  | reduce intraocular pressure in rabbits | 
8 | C#Cc1cncc2cccc(S(=O)(=O)N3CCCNC[C@@H]3C)c12.Cl.Cl [M, (S)-hexahydro-1-(4-ethynylisoquinoline-5-sulfonyl)-2-methyl-1 H-1,4-diazepine dihydrochloride, reference compound] | 19.5 | 120 |  | 28 |  |  | 

More lines, in order of falling IC50 [2], values ahead:

Row | IC50 [2] [nM] | SMILES | time after instillation of maximum intraocular-pressure-reducing effect [1] [min] | period of intraocular-pressure-reducing effect longer than that for the compound M [1] | inhibition in vivo at 1 % [1] [%] | intraocular-pressure-reducing effect relative to that of the compound M [1] | effect on intraocular pressure in rabbits (reported) [3] | intraocular-pressure-reducing effect ([1]; 1% eye drops in dimethyl sulfoxide / boric acid solution pH 7.0, rabbit)
9 | 54 | C[C@H]1CN(C(=O)CN)CCCN1S(=O)(=O)c1cccc2cncc(F)c12.Cl.Cl [Reference Compound, (S)-hexahydro-1-(4-fluoroisoquinoline-5-sulfonyl)-4-glycyl-2-methyl-1H-1,4-diazepine dihydrochloride, reference compound] |  |  |  |  |  | a statistically significant intraocular-pressure-reducing effect was not observed
10 | 48.5 | C[C@H]1CNCCCCN1S(=O)(=O)c1cccc2cncc(Br)c12 [Compound B8, (S)-octahydro-1-(4-bromoisoquinoline-5-sulfonyl)-2-methyl-1,4-diazocine dihydrochloride] | 120 | about 1 hours | 47 | 1.7 times |  | 
11 | 21.1 | C[C@H]1CNCCCCN1S(=O)(=O)c1cccc2cncc(Cl)c12 [Compound C8, (S)-octahydro-1-(4-chloroisoquinoline-5-sulfonyl)-2-methyl-1,4-diazocine dihydrochloride] | 120 | substantially the same as that for the compound M | 35 | 1.3 times |  | 
